In ChEMBL document CHEMBL5108009, “Positron Emission Tomography (PET) Imaging Tracers for Serotonin Receptors” (J Med Chem, 2022):

What was measured:
[1] = target: 5-hydroxytryptamine receptor 2B (Homo sapiens, UniProt P41595); test: Binding affinity to human 5-HT2B receptor expressed in CHO cells assessed as inhibition constant; format: cell-based
[2] = target: D(4) dopamine receptor (Homo sapiens, UniProt P21917); test: Binding affinity to human D4 receptor expressed in CHO cells assessed as inhibition constant; format: cell-based
[3] = target: T1, 5-hydroxytryptamine receptor 1A (Homo sapiens, UniProt P08908); test: Binding affinity to human 5-HT1A receptor expressed in CHO cells assessed as inhibition constant; format: cell-based
T1 sequence (P08908 whole entry): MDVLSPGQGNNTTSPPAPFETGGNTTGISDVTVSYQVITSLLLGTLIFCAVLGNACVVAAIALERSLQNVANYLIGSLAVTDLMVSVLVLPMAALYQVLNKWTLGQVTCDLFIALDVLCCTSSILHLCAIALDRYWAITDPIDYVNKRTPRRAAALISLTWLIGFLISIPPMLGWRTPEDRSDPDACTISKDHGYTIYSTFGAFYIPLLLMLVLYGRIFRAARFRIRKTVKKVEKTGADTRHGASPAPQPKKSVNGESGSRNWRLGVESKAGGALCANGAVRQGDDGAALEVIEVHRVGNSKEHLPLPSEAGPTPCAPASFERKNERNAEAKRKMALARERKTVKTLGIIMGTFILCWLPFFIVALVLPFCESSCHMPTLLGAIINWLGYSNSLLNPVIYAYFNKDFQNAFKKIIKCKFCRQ

[4] = target: T2, Alpha-1A adrenergic receptor (Homo sapiens, UniProt P35348); test: Binding affinity to human alpha 1A adrenergic receptor expressed in CHO cells assessed as inhibition constant; format: cell-based
T2 sequence (P35348 whole entry): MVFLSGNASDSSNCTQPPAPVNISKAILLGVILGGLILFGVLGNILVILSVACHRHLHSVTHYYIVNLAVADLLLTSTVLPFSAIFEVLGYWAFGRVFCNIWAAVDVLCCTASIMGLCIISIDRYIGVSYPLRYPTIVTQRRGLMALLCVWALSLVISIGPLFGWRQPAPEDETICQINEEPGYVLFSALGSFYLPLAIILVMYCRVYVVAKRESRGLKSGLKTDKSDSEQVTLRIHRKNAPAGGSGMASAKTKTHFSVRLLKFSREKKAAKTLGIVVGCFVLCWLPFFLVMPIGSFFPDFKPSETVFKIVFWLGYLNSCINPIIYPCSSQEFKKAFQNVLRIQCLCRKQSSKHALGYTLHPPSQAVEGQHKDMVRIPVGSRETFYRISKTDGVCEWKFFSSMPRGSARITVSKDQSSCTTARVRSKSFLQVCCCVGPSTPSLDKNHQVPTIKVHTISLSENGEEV

[5] = target: 5-hydroxytryptamine receptor 1D (Homo sapiens, UniProt P28221); test: Binding affinity to human 5-HT1D receptor expressed in CHO cells assessed as inhibition constant; format: cell-based
[6] = target: T3, Alpha-1A adrenergic receptor (Rattus norvegicus, UniProt P43140); test: Displacement of [3H]-WB4101 from rat forebrain alpha 1 adrenergic receptors; format: tissue-based
T3 sequence (P43140 whole entry): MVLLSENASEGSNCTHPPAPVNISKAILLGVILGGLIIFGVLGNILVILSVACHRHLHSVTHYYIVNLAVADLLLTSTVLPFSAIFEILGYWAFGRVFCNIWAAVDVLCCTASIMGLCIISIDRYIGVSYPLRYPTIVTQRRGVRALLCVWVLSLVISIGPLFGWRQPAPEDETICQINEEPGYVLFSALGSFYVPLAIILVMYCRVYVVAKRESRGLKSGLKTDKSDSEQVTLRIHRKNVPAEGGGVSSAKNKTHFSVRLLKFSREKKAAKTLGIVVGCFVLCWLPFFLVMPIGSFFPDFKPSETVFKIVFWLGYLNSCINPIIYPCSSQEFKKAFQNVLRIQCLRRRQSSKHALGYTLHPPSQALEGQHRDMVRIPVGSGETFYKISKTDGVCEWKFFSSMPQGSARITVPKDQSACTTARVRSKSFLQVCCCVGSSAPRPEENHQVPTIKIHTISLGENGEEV

[7] = target: T4, D(2) dopamine receptor (Rattus norvegicus, UniProt P61169); test: Displacement of [3H]-halopridol from rat striatum D2 receptors
[8] = target: T5, 5-hydroxytryptamine receptor 1B (Cavia porcellus, UniProt O08892); test: Binding affinity to guinea pig 5-HT1B receptor assessed as dissociation constant by autoradiographic analysis
[9] = target: T5, 5-hydroxytryptamine receptor 1B; test: Binding affinity to guinea pig 5-HT1B receptor assessed as inhibition constant by autoradiographic analysis
[10] = Drug uptake in macaque brain at 3680 to 4035 Ci/mmol, iv measured as percentage of injected dose by PET imaging at 7.5 mins relative to control; format: ADME, organism-based; details: macaca, in vivo, 0.125 h, dose 3680-4035 Ci/mmol
[11] = Ratio of drug uptake in macaque brain frontal cortex to cerebellum at 3680 to 4035 Ci/mmol, iv by PET imaging upto 100 mins relative to control; format: ADME, organism-based; details: macaca, in vivo, 1.667 h, dose 3680-4035 Ci/mmol
[12] = Ratio of drug uptake in macaque brain striatopallidal complex to cerebellum at 3680 to 4035 Ci/mmol, iv by PET imaging upto 100 mins relative to control; format: ADME, organism-based; details: macaca, in vivo, 1.667 h, dose 3680-4035 Ci/mmol
[13] = Ratio of drug uptake in macaque brain occipital cortex to cerebellum at 3680 to 4035 Ci/mmol, iv by PET imaging upto 100 mins relative to control; format: ADME, organism-based; details: macaca, in vivo, 1.667 h, dose 3680-4035 Ci/mmol
[14] = Ratio of drug uptake in macaque brain thalamus to cerebellum at 3680 to 4035 Ci/mmol, iv by PET imaging upto 100 mins relative to control; format: ADME, organism-based; details: macaca, in vivo, 1.667 h, dose 3680-4035 Ci/mmol
[15] = target: T1, 5-hydroxytryptamine receptor 1A
[16] = target: T1, 5-hydroxytryptamine receptor 1A; test: Inhibition of 5-HT1A receptor (unknown origin)
[17] = target: 5-hydroxytryptamine receptor 2A (Rattus norvegicus, UniProt P14842); test: Displacement of [3H]-spiperone from rat frontal cortex homogenate 5-HT2A receptor; format: tissue-based
[18] = target: T4, D(2) dopamine receptor; test: Displacement of [3H]-haloperidol from rat striatal homogenate D2 receptor; format: tissue-based, Striatum
[19] = target: T3, Alpha-1A adrenergic receptor; test: Displacement of [3H]-WB4101 from rat forebrain homogenate alpha 1 adrenergic receptor; format: tissue-based
[20] = Drug uptake ratio in cynomolgus monkey globus pallidus to cerebellum at 30 to 40 mins postinjection; format: ADME, organism-based, Macaca fascicularis; details: in vivo, time 30-40 min
[21] = Drug metabolism in monkey plasma assessed as unchanged compound at 120 mins postinjection relative to control; format: ADME, organism-based, Macaca mulatta; details: rhesus monkey, read-out: Stability
[22] = Drug uptake ratio in cynomolgus monkey occipital cortex to cerebellum at 30 to 40 mins postinjection; format: ADME, organism-based, Macaca fascicularis; details: in vivo, time 30-40 min
[23] = target: T4, D(2) dopamine receptor; test: Binding affinity to rat striatum homogenate membrane D2 receptor incubated for 10 mins; format: cell membranes
[24] = target: T3, Alpha-1A adrenergic receptor; test: Binding affinity to rat forebrain homogenate membrane alpha 1 adrenergic receptor incubated for 10 mins; format: cell membranes
[25] = target: Histamine H1 receptor (Cavia porcellus, UniProt P31389); test: Binding affinity to guinea pig cerebellum homogenate membrane H1 receptor incubated for 30 mins; format: cell membranes
[26] = Binding affinity to pig 5-HT1B receptor (unknown origin) assessed as inhibition constant
[27] = Drug uptake in cynomolgus monkey frontal cortex administered iv measured as percentage of injected dose by PET imaging relative to control; format: ADME, organism-based, Macaca fascicularis; details: in vivo
[28] = Drug uptake in monkey brain measured after 7 mins postinjection; format: ADME, organism-based, Macaca mulatta; details: rhesus monkey, in vivo
[29] = Drug uptake in rat brain; format: ADME, tissue-based; details: in vivo
[30] = Binding affinity to rhesus monkey 5-HT1B receptor assessed as inhibition constant; set-up: species or system Macaca mulatta
[31] = Binding affinity to rhesus monkey 5-HT1D receptor assessed as inhibition constant; set-up: species or system Macaca mulatta
[32] = Ratio of drug uptake in human frontal cortex to cerebellum at 15 mCi measured after 60 mins postinjection by PET imaging; format: ADME, organism-based, Brain frontal cortex/cerebellum; details: in vivo, 1 h
[33] = target: Serotonin 2 (5-HT2) receptor (Homo sapiens, UniProt P41595+P28223+P28335); test: Binding affinity to cerebrum 5-HT2 receptor (unknown origin); format: tissue-based
[34] = Ratio of drug uptake in human frontal cortex to cerebellum at 15 mCi measured after 30 mins postinjection by PET imaging; format: ADME, organism-based, Brain frontal cortex/cerebellum; details: in vivo, 0.5 h

T4 sequence (P61169 whole entry): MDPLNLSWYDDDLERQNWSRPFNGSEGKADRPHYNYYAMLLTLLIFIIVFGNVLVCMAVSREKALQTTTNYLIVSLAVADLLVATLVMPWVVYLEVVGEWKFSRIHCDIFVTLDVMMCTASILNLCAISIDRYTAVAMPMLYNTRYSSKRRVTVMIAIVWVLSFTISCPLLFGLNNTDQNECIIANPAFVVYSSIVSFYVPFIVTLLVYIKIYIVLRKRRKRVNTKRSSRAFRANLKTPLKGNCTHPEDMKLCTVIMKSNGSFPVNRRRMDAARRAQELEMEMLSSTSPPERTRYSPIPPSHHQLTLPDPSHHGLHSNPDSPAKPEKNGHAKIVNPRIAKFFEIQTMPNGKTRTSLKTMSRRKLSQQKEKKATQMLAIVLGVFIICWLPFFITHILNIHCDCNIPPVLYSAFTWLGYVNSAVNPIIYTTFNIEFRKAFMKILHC
T5 sequence (O08892 whole entry): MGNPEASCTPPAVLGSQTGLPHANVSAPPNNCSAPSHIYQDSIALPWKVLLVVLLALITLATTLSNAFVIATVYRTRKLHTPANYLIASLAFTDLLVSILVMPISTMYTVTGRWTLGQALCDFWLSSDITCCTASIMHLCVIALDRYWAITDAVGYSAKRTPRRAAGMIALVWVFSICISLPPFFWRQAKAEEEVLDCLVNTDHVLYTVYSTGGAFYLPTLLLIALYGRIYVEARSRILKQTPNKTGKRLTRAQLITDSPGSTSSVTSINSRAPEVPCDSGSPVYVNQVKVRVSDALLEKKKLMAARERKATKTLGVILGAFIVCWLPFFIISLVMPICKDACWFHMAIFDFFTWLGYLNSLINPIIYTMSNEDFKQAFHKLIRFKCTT
5-hydroxytryptamine receptor 2A, sequence (P14842 whole entry): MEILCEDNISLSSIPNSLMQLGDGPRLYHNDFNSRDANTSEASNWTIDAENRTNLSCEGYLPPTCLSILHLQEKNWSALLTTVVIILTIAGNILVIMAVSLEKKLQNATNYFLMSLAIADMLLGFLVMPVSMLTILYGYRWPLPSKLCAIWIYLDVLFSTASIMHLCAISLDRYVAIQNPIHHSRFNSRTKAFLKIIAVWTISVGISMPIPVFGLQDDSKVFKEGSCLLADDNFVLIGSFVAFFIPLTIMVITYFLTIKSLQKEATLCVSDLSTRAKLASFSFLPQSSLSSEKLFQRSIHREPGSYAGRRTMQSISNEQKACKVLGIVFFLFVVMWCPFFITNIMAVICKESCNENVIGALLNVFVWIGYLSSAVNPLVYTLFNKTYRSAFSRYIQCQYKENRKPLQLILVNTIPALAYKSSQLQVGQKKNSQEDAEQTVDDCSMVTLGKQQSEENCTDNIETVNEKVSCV
5-hydroxytryptamine receptor 2B, sequence (P41595 whole entry): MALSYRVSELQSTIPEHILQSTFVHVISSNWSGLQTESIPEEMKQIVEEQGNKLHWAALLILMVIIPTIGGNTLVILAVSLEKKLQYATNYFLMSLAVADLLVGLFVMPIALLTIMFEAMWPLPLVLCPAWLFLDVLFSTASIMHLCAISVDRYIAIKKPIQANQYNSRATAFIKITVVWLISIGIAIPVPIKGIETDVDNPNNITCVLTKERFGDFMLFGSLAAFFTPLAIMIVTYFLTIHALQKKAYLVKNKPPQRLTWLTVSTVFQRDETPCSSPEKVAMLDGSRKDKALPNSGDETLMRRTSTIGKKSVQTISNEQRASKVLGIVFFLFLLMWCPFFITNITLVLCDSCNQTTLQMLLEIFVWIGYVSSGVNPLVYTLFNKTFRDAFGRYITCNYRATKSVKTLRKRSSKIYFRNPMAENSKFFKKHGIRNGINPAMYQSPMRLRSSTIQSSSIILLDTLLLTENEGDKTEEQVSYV
D(4) dopamine receptor, sequence (P21917 whole entry): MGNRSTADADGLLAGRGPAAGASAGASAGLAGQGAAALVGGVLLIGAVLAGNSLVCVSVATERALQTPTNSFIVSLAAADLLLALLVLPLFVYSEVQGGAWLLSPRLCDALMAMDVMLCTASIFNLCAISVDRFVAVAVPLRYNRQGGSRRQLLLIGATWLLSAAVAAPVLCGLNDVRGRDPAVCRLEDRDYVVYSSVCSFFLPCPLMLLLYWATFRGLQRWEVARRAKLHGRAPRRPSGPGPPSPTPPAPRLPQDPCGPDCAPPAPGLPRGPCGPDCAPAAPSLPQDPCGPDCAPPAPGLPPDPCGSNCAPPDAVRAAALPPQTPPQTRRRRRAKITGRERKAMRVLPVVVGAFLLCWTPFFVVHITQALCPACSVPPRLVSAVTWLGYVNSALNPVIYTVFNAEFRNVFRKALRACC
5-hydroxytryptamine receptor 1D, sequence (P28221 whole entry): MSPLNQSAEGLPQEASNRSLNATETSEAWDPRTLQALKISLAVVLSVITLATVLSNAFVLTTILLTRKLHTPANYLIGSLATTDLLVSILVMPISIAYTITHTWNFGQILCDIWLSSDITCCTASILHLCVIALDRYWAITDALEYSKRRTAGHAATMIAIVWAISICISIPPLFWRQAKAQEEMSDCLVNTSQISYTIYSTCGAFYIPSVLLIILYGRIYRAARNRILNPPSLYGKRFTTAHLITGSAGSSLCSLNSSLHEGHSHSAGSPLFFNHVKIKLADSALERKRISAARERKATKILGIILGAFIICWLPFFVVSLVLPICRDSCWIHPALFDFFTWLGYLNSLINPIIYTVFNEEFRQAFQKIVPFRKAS
Histamine H1 receptor, sequence (P31389 whole entry): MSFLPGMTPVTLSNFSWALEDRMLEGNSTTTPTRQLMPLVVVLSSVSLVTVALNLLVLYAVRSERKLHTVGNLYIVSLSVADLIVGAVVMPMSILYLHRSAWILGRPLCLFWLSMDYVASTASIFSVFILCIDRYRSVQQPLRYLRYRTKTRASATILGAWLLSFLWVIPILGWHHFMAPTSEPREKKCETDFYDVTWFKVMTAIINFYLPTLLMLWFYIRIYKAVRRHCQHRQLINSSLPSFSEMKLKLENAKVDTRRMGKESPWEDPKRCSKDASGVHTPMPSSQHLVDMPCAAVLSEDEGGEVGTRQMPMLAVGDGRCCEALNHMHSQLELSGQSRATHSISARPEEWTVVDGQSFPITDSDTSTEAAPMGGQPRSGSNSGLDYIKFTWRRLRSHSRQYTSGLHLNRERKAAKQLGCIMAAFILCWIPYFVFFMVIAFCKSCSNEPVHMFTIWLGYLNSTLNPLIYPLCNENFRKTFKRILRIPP

O=C(NCCN1CCN(c2cccc3c2OCCO3)CC1)c1ccc(F)cc1
Ki [1]: 46 nM | Ki [2]: 4 nM | Ki [3]: 0.1 nM | Ki [4]: 40 nM | Ki [5]: 25 nM

O=C(c1ccc(F)cc1)C1CCN(CCn2c(=S)[nH]c3ccccc3c2=O)CC1 [ALTANSERIN]
Ki [6]: 5 nM | Ki [7]: 62 nM

Cc1ccc(N2CCN([11CH3])CC2)c2oc(C(=O)Nc3ccc(N4CCOCC4)cc3)cc(=O)c12
Kd [8]: 0.4 nM | Ki [9]: 0.01 nM | Drug uptake [10]: 3% | Ratio [11]: 2.6 | Ratio [12]: 4.1 | Ratio [13]: 4.2 | Ratio [14]: 2.6

CCCN(CCC)C1CCc2ccc3[nH]cc(C=O)c3c2C1 (stereo not given)
Ki [15]: 1.2 nM | IC50 [16]: 1.2 nM

Cc1nc2n(c(=O)c1CCN1CCC(C(=O)c3ccc(F)cc3)CC1)CCS2 [SETOPERONE]
Ki [17]: 2.3 nM | Ki [18]: 24 nM | Ki [19]: 12 nM

[11CH3]N1CCN(c2cc(F)cc3c(=O)cc(C(=O)Nc4ccc(N5CCOCC5)c(F)c4)oc23)CC1
Ratio [20]: 2.5 | remaining at 2 h [21]: > 40% | Ratio [22]: 2.2

O=C(c1ccc(F)cc1)C1CCN(CCn2c(=O)[nH]c3ccccc3c2=O)CC1 [KETANSERIN]
Ki [23]: 220 nM | Ki [24]: 10 nM | Ki [25]: 10 nM

CCC(=O)N1CCN(c2ccc(NC(=O)c3cc(=O)c4cc(F)cc(N5CCN([11CH3])CC5)c4o3)cc2)CC1
Ki [26]: 2 nM | Drug uptake [27]: 0.7%

[11CH3]Oc1ccc2cccc(N3CCN(CCNC(=O)c4ccc(F)cc4)CC3)c2c1
Ki [15]: 0.98 nM | SUV [28]: 7 | SUV [29]: 2

COC(C)(C)c1ccc(N2CC[C@@H](Cc3ccccc3N3CCN(C)CC3)C2=O)cc1
Ki [30]: 1.2 nM | Ki [31]: 12 nM

CCN(CC)C(=O)[C@@H]1C=C2c3cccc4c3c(c(Br)n4[11CH3])CC2N(C)C1 (stereo not given in full)
Ratio [32]: 2.7 | Ki [33]: 0.5 nM | Ratio [34]: 1.7
